Drawing on US8614218B2, “Fused bicyclic pyrimidines” (Bayer Intellectual Property GmbH, priority 2007, dated 2013), this text covers IC50 for 24 compounds.

The structures appear in SMILES notation.

For one assay, the system named is A549 cells. Kind of assay: Cellular proliferation/cytotoxicity assay (Alamar Blue), A549. The assay is classed as cell-based. Conditions: Homo sapiens, 72 h, Alamar Blue (Resazurin), read-out: Anti-proliterative/Cytotoxic activity (A549 cells). How it is done: (§1) Cellular Proliferation/Cytotoxicity Assay:
(§2) The anti-proliferative activity of the compounds as described herein, is evaluated using the OvCAR3, HCT116 and A549 cell lines and the Alamar Blue (Resazurin) cell viability assay (O'Brien et al. Eur J Biochem 267, 5421-5426, 2000). Resazurin is reduced to the fluorescent resorufin by cellular dehydrogenase activity, correlating with viable, proliferating cells. Test compounds are dissolved as 10 mM solutions in DMSO and subsequently diluted. Cells like HCT116 or A549 cells were seeded into 96 well flat bottom plates at a density of 10000 cells/well (OvCAR3 cells), 1000 cells/well (HCT116 cells) or 2000 cells/well (A549 cells) in a volume of 200 μl/well. 24 hours after seeding, 1 μl each of the compound dilutions are added into each well of the 96 well plates. Each compound dilution is tested as at least as duplicates. Wells containing untreated control cells were filled with 200 μl DMEM (Dulbecco's Modified Eagle Medium) containing 0.5 vol % v:v DMSO. The cells are then incubated with the substances for 72 h at 37° C. in a humidified atmosphere containing 5 vol % CO2. To determine the viability of the cells, 20 μl of a Resazurin solution (90 mg/l) are added. After 4 h incubation at 37° C., the fluorescence is measured by extinction at λ=544 nm and an emission of λ=590 nm (Wallac Victor2; Perkin Elmer, USA). For the calculation of the cell viability, the emission value from untreated cells is set as 100% viability and the fluorescence intensity of treated cells are set in relation to the values of untreated cells. Viabilities are expressed as % values. The corresponding IC50 values of the compounds for cytotoxic activity are determined from the concentration-effect curves by means of non-linear regression. The analysis of the data is performed using a biostatistical program (GraphPad Prism, USA).
(§3) Representative IC50 values for anti-proliferative/cytotoxic potency determined in the aforementioned assay follow from the following table, in which the numbers of the compound correspond to the numbers of the examples.
In general terms: Resazurin is reduced to fluorescent resorufin, in cell work by metabolically active cells.

The subject of another assay is OvCAR3 cells. As to the kind of experiment: Cellular proliferation/cytotoxicity assay (Alamar Blue), OvCAR3. The assay is classed as cell-based. Conditions: Homo sapiens, OVCAR-3, 72 h, Alamar Blue (Resazurin), read-out: Anti-proliferative/Cytotoxic activity (OvCAR3 cells). How it is done: as §1, §2, §3

For `c1ccc(-c2cn3ccnc3nc2-c2ccc(CN3CCC(c4nc(-c5ccccn5)n[nH]4)CC3)cc2)cc1` [Example 1, 6-phenyl-7-(4-{[4-(3-pyridin-2-yl-1,2,4-triazol-5-yl)piperidin-1-yl]methyl}phenyl)imidazo[1,2-a]pyrimidine], the IC50 with A549 cells was greater than 10 µM; in the assay on OvCAR3 cells it was less than 10 µM.
On the same counts, the results for `c1ccc(-c2cn3ncnc3nc2-c2ccc(CN3CCC(c4n[nH]c(-c5ccccn5)n4)CC3)cc2)cc1` [Example 2, 6-phenyl-5-(4-{[4-(5-pyridin-2-yl-1,2,4-triazol-3-yl)piperidin-1-yl]methyl}phenyl)[1,2,4]triazolo[1,5-a]pyrimidine] are greater than 10 µM and less than 10 µM.
On the same counts, the results for `Cc1nc2nc(-c3ccc(CN4CCC(c5n[nH]c(-c6ccccn6)n5)CC4)cc3)c(-c3ccccc3)cn2n1` [Example 3, 2-methyl-6-phenyl-5-(4-{[4-(5-pyridin-2-yl-1,2,4-triazol-3-yl)piperidin-1-yl]methyl}phenyl)[1,2,4]triazolo[1,5-a]pyrimidine] are less than 10 µM and less than 10 µM.
On the same counts, the results for `c1ccc(-c2cn3nc(C4CC4)nc3nc2-c2ccc(CN3CCC(c4n[nH]c(-c5ccccn5)n4)CC3)cc2)cc1` [Example 4, 2-cyclopropyl-6-phenyl-5-(4-{[4-(5-pyridin-2-yl-1,2,4-triazol-3-yl)piperidin-1-yl]methyl}phenyl)[1,2,4]triazolo[1,5-a]pyrimidine] are less than 10 µM and less than 10 µM.
Consider `c1ccc(-c2cn3ccnc3nc2-c2ccc(CN3CCC(c4cc(-c5ccccn5)n[nH]4)CC3)cc2)cc1` [Example 5, 6-phenyl-7-(4-{[4-(3-pyridin-2-yl-pyrazol-5-yl)piperidin-1-yl]methyl}phenyl)imidazo[1,2-a]pyrimidine], for which the IC50 in the assay with A549 cells and with OvCAR3 cells was less than 10 µM throughout.
For the compound `c1ccc(-c2cn3ccnc3nc2-c2ccc(CN3CCC(c4n[nH]c(-c5ccncc5)n4)CC3)cc2)cc1` [Example 6, 6-phenyl-7-(4-{[4-(5-pyridin-4-yl-1,2,4-triazol-3-yl)piperidin-1-yl]methyl}phenyl)imidazo[1,2-a]pyrimidine], the IC50 with A549 cells and in the assay with OvCAR3 cells was less than 10 µM each time.
For the compound `c1ccc(-c2cn3nc(C4CCC4)nc3nc2-c2ccc(CN3CCC(c4n[nH]c(-c5ccccn5)n4)CC3)cc2)cc1` [Example 7, 2-cyclobutyl-6-phenyl-5-(4-{[4-(5-pyridin-2-yl-1,2,4-triazol-3-yl)piperidin-1-yl]methyl}phenyl)[1,2,4]triazolo[1,5-a]pyrimidine], the IC50 with A549 cells is greater than 10 µM; with OvCAR3 cells, less than 10 µM.
On the same counts, the results for `N#Cc1cnc2nc(-c3ccc(CN4CCC(c5n[nH]c(-c6ccccn6)n5)CC4)cc3)c(-c3ccccc3)cn12` [Example 8, 6-phenyl-7-(4-{[4-(5-pyridin-2-yl-1,2,4-triazol-3-yl)piperidin-1-yl]methyl}phenyl)imidazo[1,2-a]pyrimidine-3-carbonitrile] are greater than 10 µM and less than 10 µM.
`Fc1cnc2nc(-c3ccc(CN4CCC(c5n[nH]c(-c6ccccn6)n5)CC4)cc3)c(-c3ccccc3)cn12` [Example 9, 3-fluoro-6-phenyl-7-(4-{[4-(5-pyridin-2-yl-1H-1,2,4-triazol-3-yl)piperidin-1-yl]methyl}phenyl)imidazo[1,2-a]pyrimidine]: the IC50 in the assay on A549 cells is greater than 10 µM; with OvCAR3 cells it was less than 10 µM.
With `CNc1c(-c2ccccc2)c(-c2ccc(CN3CCC(c4n[nH]c(-c5ccccn5)n4)CC3)cc2)nc2nccn12` [Example 10, N-methyl-6-phenyl-7-(4-{[4-(5-pyridin-2-yl-1,2,4-triazol-3-yl)piperidin-1-yl]methyl}phenyl)imidazo[1,2-a]pyrimidin-5-amine], the IC50 in the assay on A549 cells is greater than 10 µM; in the assay on OvCAR3 cells, less than 10 µM.
Regarding `Brc1cnc2nc(-c3ccc(CN4CCC(c5n[nH]c(-c6ccccn6)n5)CC4)cc3)c(-c3ccccc3)cn12` [Example 11, 3-bromo-6-phenyl-7-(4-{[4-(5-pyridin-2-yl-1,2,4-triazol-3-yl)piperidin-1-yl]methyl}phenyl)imidazo[1,2-a]pyrimidine], the IC50 in the assay with A549 cells is greater than 10 µM; with OvCAR3 cells, less than 10 µM.
On the same counts, the results for `Clc1cnc2nc(-c3ccc(CN4CCC(c5n[nH]c(-c6ccccn6)n5)CC4)cc3)c(-c3ccccc3)cn12` [Example 12, 3-chloro-6-phenyl-7-(4-{[4-(5-pyridin-2-yl-1,2,4-triazol-3-yl)piperidin-1-yl]methyl}phenyl)imidazo[1,2-a]pyrimidine] are less than 10 µM and less than 10 µM.
Take `Cc1cccc(-c2n[nH]c(C3CCN(Cc4ccc(-c5nc6nc(C)nn6cc5-c5ccccc5)cc4)CC3)n2)n1` [Example 74, 2-Methyl-5-[4-({4-[3-(6-methylpyridin-2-yl)-1H-1,2,4-triazol-5-yl]piperidin-1-yl}methyl)phenyl]-6-phenyl[1,2,4]triazolo[1,5-a]pyrimidine]: the IC50 in the assay on A549 cells was less than 10 µM.
Consider `Cc1cccc(-c2n[nH]c(C3CCN(Cc4ccc(-c5nc6ccnn6cc5-c5ccccc5)cc4)CC3)n2)n1` [Example 75, 5-[4-({4-[3-(6-Methylpyridin-2-yl)-1H-1,2,4-triazol-5-yl]piperidin-1-yl}methyl)phenyl]-6-phenylpyrazolo[1,5-a]pyrimidine], for which the IC50 in the assay with A549 cells is less than 10 µM.
As for `c1ccc(-c2cn3nccc3nc2-c2ccc(CN3CCC(c4cc(-c5ccccn5)n[nH]4)CC3)cc2)cc1` [Example 76, 6-Phenyl-5-(4-{[4-(3-pyridin-2-yl-1H-pyrazol-5-yl)piperidin-1-yl]methyl}phenyl)pyrazolo[1,5-a]pyrimidine], the IC50 in the assay on A549 cells is greater than 10 µM.
As to `COC(=O)c1cc2nc(-c3ccc(CN4CCC(c5n[nH]c(-c6ccccn6)n5)CC4)cc3)c(-c3ccccc3)cn2n1` [Example 77, Methyl 6-phenyl-5-(4-{[4-(5-pyridin-2-yl-1H-1,2,4-triazol-3-yl)piperidin-1-yl]methyl}phenyl)pyrazolo[1,5-a]pyrimidine-2-carboxylate], in the assay on A549 cells, the IC50 was less than 10 µM.
As to `NC(=O)c1cc2nc(-c3ccc(CN4CCC(c5n[nH]c(-c6ccccn6)n5)CC4)cc3)c(-c3ccccc3)cn2n1` [Example 78, 6-Phenyl-5-(4-{[4-(5-pyridin-2-yl-1H-1,2,4-triazol-3-yl)piperidin-1-yl]methyl}phenyl)pyrazolo[1,5-a]pyrimidine-2-carboxamide], the IC50 in the assay with A549 cells is greater than 10 µM.
With `O=C(O)c1cc2nc(-c3ccc(CN4CCC(c5n[nH]c(-c6ccccn6)n5)CC4)cc3)c(-c3ccccc3)cn2n1` [Example 79, 6-Phenyl-5-(4-{[4-(5-pyridin-2-yl-1H-1,2,4-triazol-3-yl)piperidin-1-yl]methyl}phenyl)pyrazolo[1,5-a]pyrimidine-2-carboxylic acid], the IC50 with A549 cells was less than 10 µM.
On the same count and under the same terms, the same measure for `Cc1nc2nc(-c3ccc(CN4CCC(c5nc(-c6ccco6)n[nH]5)CC4)cc3)c(-c3ccccc3)cn2n1` [Example 80, 5-[4-({4-[3-(2-furyl)-1H-1,2,4-triazol-5-yl]piperidin-1-yl}methyl)phenyl]-2-methyl-6-phenyl[1,2,4]triazolo[1,5-a]pyrimidine]: greater than 10 µM.
For `c1ccc(-c2cn3nccc3nc2-c2ccc(CN3CCC(c4nc(-c5ccco5)n[nH]4)CC3)cc2)cc1` [Example 81, 5-[4-({4-[3-(2-furyl)-1H-1,2,4-triazol-5-yl]piperidin-1-yl}methyl)phenyl]-6-phenylpyrazolo[1,5-a]pyrimidine], the IC50 in the assay on A549 cells is less than 10 µM.
The same measure, in the same setting: next, `c1ccc(-c2cn3ccnc3nc2-c2ccc(CN3CCC(c4nc(-c5ccco5)n[nH]4)CC3)cc2)cc1` [Example 82, 7-[4-({4-[3-(2-furyl)-1H-1,2,4-triazol-5-yl]piperidin-1-yl}methyl)phenyl]-6-phenylimidazo[1,2-a]pyrimidine]: greater than 10 µM; `Cc1nc2nc(-c3ccc(CN4CCC(c5nc(-c6ccccc6)n[nH]5)CC4)cc3)c(-c3ccccc3)cn2n1` [Example 83, 2-methyl-6-phenyl-5-(4-{[4-(3-phenyl-1H-1,2,4-triazol-5-yl)piperidin-1-yl]methyl}phenyl)[1,2,4]triazolo[1,5-a]pyrimidine]: greater than 10 µM; `COc1ccnc(-c2nc(C3CCN(Cc4ccc(-c5nc6nccn6cc5-c5ccccc5)cc4)CC3)n[nH]2)c1` [Example 84, 7-[4-({4-[5-(4-methoxypyridin-2-yl)-1H-1,2,4-triazol-3-yl]piperidin-1-yl}methyl)phenyl]-6-phenylimidazo[1,2-a]pyrimidine]: less than 10 µM.
As to `c1ccc(-c2cn3ccnc3nc2-c2ccc(CN3CCC(c4n[nH]c(-c5ccccn5)n4)CC3)cc2)cc1` [Example 85, 6-phenyl-7-{4-[4-(5-pyridin-2-yl-1H-[1,2,4]triazol-3-yl)-piperidin-1-ylmethyl]-phenyl}-imidazo[1,2-a]pyrimidine], the IC50 with A549 cells is greater than 10 µM.
